The supplement of paper PMC10307832

Legend:
Test in all cases: relative viability (nuclei count vs DMSO), 5 days (fraction); higher = more cells survive
[1] = compound: COc1cc2ncn(-c3cc(OCc4ccccc4C(F)(F)F)c(C(N)=O)s3)c2cc1OC + CC(=O)c1c(C)c2cnc(Nc3ccc(N4CCNCC4)cn3)nc2n(C2CCCC2)c1=O [Palbociclib] (partner 0.5 µM)
Summary of the method: (§1)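 Lung cancer cell lines were seeded in 1536-well plates and dosed by pin tool the next day, with either a single drug or a fixed anchor-drug dose combined with five library-drug doses (not always all listed) spaced in √10 steps. Five days later, one step fixed the cells and stained their nuclei (final 0.05% Triton X-100, 1% formaldehyde, 1 ug/ml Hoechst), and nuclei were counted on 4× images. Relative viability is the nuclei count in treated wells divided by the count in vehicle wells, and each value is the median of duplicate plates.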

[2] = compound: COc1cc2ncn(-c3cc(OCc4ccccc4C(F)(F)F)c(C(N)=O)s3)c2cc1OC + Cc1nc(Nc2ncc(C(=O)Nc3c(C)cccc3Cl)s2)cc(N2CCN(CCO)CC2)n1 [Dasatinib] (partner 0.075 µM)
Summary of the method: as §1

[3] = compound: COc1cc2ncn(-c3cc(OCc4ccccc4C(F)(F)F)c(C(N)=O)s3)c2cc1OC + Cc1nc(NC(=O)N2CCC[C@H]2C(N)=O)sc1-c1ccnc(C(C)(C)C(F)(F)F)c1 [Alpelisib] (partner 2 µM)
Summary of the method: as §1

[4] = compound: COc1cc2ncn(-c3cc(OCc4ccccc4C(F)(F)F)c(C(N)=O)s3)c2cc1OC + CC(C)C[C@H](NC(=O)[C@H](Cc1ccccc1)NC(=O)c1cnccn1)B(O)O [Bortezomib] (partner 0.002 µM)
Summary of the method: as §1

Row | Cell Line | relative viability ([1]; first compound 0.05 µM) | relative viability ([1]; first compound 0.1581 µM) | relative viability ([1]; first compound 0.5 µM) | relative viability ([1]; first compound 1.581 µM) | relative viability ([1]; first compound 5 µM) | relative viability ([2]; first compound 0.05 µM) | relative viability ([2]; first compound 0.1581 µM) | relative viability ([2]; first compound 0.5 µM) | relative viability ([2]; first compound 1.581 µM) | relative viability ([2]; first compound 5 µM) | relative viability ([3]; first compound 0.05 µM) | relative viability ([3]; first compound 0.1581 µM) | relative viability ([3]; first compound 0.5 µM) | relative viability ([3]; first compound 1.581 µM) | relative viability ([3]; first compound 5 µM) | relative viability ([4]; first compound 0.05 µM) | relative viability ([4]; first compound 0.1581 µM) | relative viability ([4]; first compound 0.5 µM) | relative viability ([4]; first compound 1.581 µM) | relative viability ([4]; first compound 5 µM)
1 | NCI-H1975 | 0.613 | 0.33 | 0.193 | 0.198 | 0.148 | 0.415 | 0.335 | 0.207 | 0.126 | 0.109 | 0.645 | 0.609 | 0.359 | 0.153 | 0.152 | 0.371 | 0.335 | 0.182 | 0.144 | 0.115
2 | NCI-H1437 | 0.3 | 0.279 | 0.253 | 0.206 | 0.192 | 0.412 | 0.356 | 0.322 | 0.162 | 0.104 | 1.11 | 0.959 | 0.187 | 0.12 | 0.0887 | 0.526 | 0.38 | 0.145 | 0.148 | 0.107
3 | NCI-H2009 | 0.191 | 0.203 | 0.188 | 0.178 | 0.127 | 0.297 | 0.256 | 0.152 | 0.128 | 0.0782 | 1.07 | 1.05 | 0.667 | 0.169 | 0.154 | 0.965 | 0.831 | 0.289 | 0.149 | 0.113
4 | NCI-H1651 | 0.535 | 0.492 | 0.481 | 0.484 | 0.397 | 0.403 | 0.39 | 0.198 | 0.0914 | 0.0837 | 0.98 | 0.95 | 0.777 | 0.111 | 0.0858 | 1.05 | 0.9 | 0.994 | 0.708 | 0.256
5 | LCLC-103H | 0.477 | 0.471 | 0.456 | 0.35 | 0.302 | 0.466 | 0.522 | 0.341 | 0.176 | 0.175 | 0.966 | 1.04 | 0.997 | 0.389 | 0.248 | 1 | 1.03 | 0.744 | 0.522 | 0.208
6 | NCI-H1666 | 0.631 | 0.637 | 0.597 | 0.414 | 0.445 | 0.825 | 0.758 | 0.518 | 0.316 | 0.271 | 1.22 | 0.834 | 0.493 | 0.29 | 0.292 | 0.899 | 0.801 | 0.489 | 0.28 | 0.299
7 | NCI-H1734 | 0.315 | 0.334 | 0.325 | 0.203 | 0.171 | 0.477 | 0.516 | 0.387 | 0.197 | 0.129 | 0.784 | 0.721 | 0.571 | 0.334 | 0.224 | 1.01 | 0.884 | 0.59 | 0.234 | 0.143
8 | EPLC-272H | 0.273 | 0.322 | 0.222 | 0.144 | 0.226 |  | 0.408 | 0.142 | 0.0755 | 0.103 | 0.9 | 0.869 | 0.402 | 0.126 | 0.129 | 1.05 | 0.82 | 0.567 | 0.0851 | 0.135
9 | NCI-H2023 | 0.397 | 0.41 | 0.265 | 0.0834 | 0.0792 | 0.566 | 0.532 | 0.355 | 0.096 | 0.0804 | 0.547 | 0.634 | 0.61 | 0.0955 | 0.0801 | 0.998 | 1.24 | 0.403 | 0.0876 | 0.0864
10 | BEN | 0.5 | 0.455 | 0.471 | 0.45 | 0.437 | 0.363 | 0.327 | 0.29 | 0.186 | 0.229 | 1.18 | 1 | 0.81 | 0.262 | 0.391 | 0.911 | 0.476 | 0.801 | 0.253 | 0.244
11 | COR-L 105 | 0.396 | 0.4 | 0.424 | 0.325 | 0.321 | 0.337 | 0.33 | 0.273 | 0.22 | 0.19 | 1.13 | 0.913 | 0.857 | 0.34 | 0.258 | 0.727 | 0.763 | 0.529 | 0.271 | 0.269
12 | ABC-1 | 0.665 | 0.777 | 0.748 | 0.583 | 0.37 | 0.539 | 0.542 | 0.469 | 0.276 | 0.239 | 1.25 | 1.02 | 0.786 | 0.316 | 0.319 | 0.304 | 0.294 | 0.281 | 0.242 | 0.233
13 | HCC-15 | 0.729 | 0.702 | 0.519 | 0.167 | 0.141 | 0.582 | 0.548 | 0.242 | 0.105 | 0.0655 | 0.93 | 0.749 | 0.283 | 0.142 | 0.1 | 0.99 | 0.89 | 0.785 | 0.142 | 0.114
14 | RERF-LC-KJ | 1.03 | 1.16 | 0.71 | 0.616 | 0.46 | 0.846 | 0.748 | 0.336 | 0.21 | 0.182 | 0.859 | 0.849 | 0.515 | 0.294 | 0.622 | 1.14 | 1.12 | 0.67 | 0.357 | 0.558
